41 compounds from patent publication US20160090556A1, “PRODUCTS COMPRISING MALODOR REDUCTION MATERIALS” (The Procter & Gamble Company, priority 2014, published 2016) can be followed below.

Like-named read-outs stand apart in the source and are kept apart here.

This data set in a line: Liquid dish neat product liquid-air partition coefficient. It is filed as physicochemical.
Setting [1] is: class code letter within Comment Code.

As to `C=CC(O)(CC)CCC=C(C)C` (stereo not shown) [Material 390], the “Log of liquid dish neat product liquid-air partition coefficient (Comment Code K/L)” value (from here on “Log … (Comment Code K/L)”) under setting [1] is reported as “K (Log of liquid dish neat product liquid-air partition coefficient greater than or equal to −7)”.
Same read-out and setting: the result for `COC(C=C(C)CCC=C(C)C)OC` [Material 520] reads “K (Log of liquid dish neat product liquid-air partition coefficient greater than or equal to −7)”.
With `CC12CCC(C(=O)C1=O)C2(C)C` (stereo not shown) [Material 587], the “Log … (Comment Code K/L)” value is given as “K (Log of liquid dish neat product liquid-air partition coefficient greater than or equal to −7)”.
Take `c1ccc(CCCc2ccccn2)cc1` [Material 497]: the “Log … (Comment Code K/L)” value under setting [1] was “K (Log of liquid dish neat product liquid-air partition coefficient greater than or equal to −7)”.
The same measure, in the same setting: the result for `CC1=CCC(=C(C)C)CCC(C)=CCC1` [Material 295] reads “K (Log of liquid dish neat product liquid-air partition coefficient greater than or equal to −7)”.
Still for that read-out and setting: the result for `C=CC(=C)CCCC(C)(C)OC(C)=O` [Material 35] reads “K (Log of liquid dish neat product liquid-air partition coefficient greater than or equal to −7)”.
As to `CC12CCCC(O)(C1)C1CC(C)(C)C1CC2` (stereo not shown) [Material 574], the “Log … (Comment Code K/L)” value was “K (Log of liquid dish neat product liquid-air partition coefficient greater than or equal to −7)”. Further, the “Comment Code: Log of liquid dish neat product liquid-air partition coefficient” value (shortened to “Comment Code: Log”) (code letters K, L) is recorded as “K (Log of liquid dish neat product liquid-air partition coefficient greater than or equal to −7)”.
With `CCC(=O)OC(C)(C)C1CC=C(C)CC1` (stereo not shown) [Material 686], the “Log … (Comment Code K/L)” value is “K (Log of liquid dish neat product liquid-air partition coefficient greater than or equal to −7)”.
Take `CC1=CCC(CCC(C)CO)C1(C)C` (stereo not shown) [Material 600]: the “Log … (Comment Code K/L)” value is given as “K (Log of liquid dish neat product liquid-air partition coefficient greater than or equal to −7)”.
With `CC1(C)C2=C(CO)CCC(C)(C)C23CCC1C3` (stereo not shown) [Material 248], where the note is “code letters K, L”, the “Comment Code: Log” value is listed as “K (Log of liquid dish neat product liquid-air partition coefficient greater than or equal to −7)”.
`CCC1=CCCC(C)(C)C12C=CC(C)O2` (stereo not shown) [Material 413]: the “Log … (Comment Code K/L)” value under setting [1] is “K (Log of liquid dish neat product liquid-air partition coefficient greater than or equal to −7)”.
The same measure, in the same setting: the result for `C=CCCCCCCC/C=C/CC#N` [Material 137] reads “K (Log of liquid dish neat product liquid-air partition coefficient greater than or equal to −7)”.
In the case of `CC(C)=C1CCC2=CC(=O)CC(C)C2(C)C1` (stereo not shown) [Material 684], the “Log … (Comment Code K/L)” value is on record as “K (Log of liquid dish neat product liquid-air partition coefficient greater than or equal to −7)”. Further, the “Comment Code: Log” value (code letters K, L) is reported as “K (Log of liquid dish neat product liquid-air partition coefficient greater than or equal to −7)”.
For `C=CC(C)(CCC=C(C)C)OC=O` (stereo not shown) [Material 150], for the setting “code letters K, L”, the “Comment Code: Log” value is reported as “K (Log of liquid dish neat product liquid-air partition coefficient greater than or equal to −7)”.
Take `CCC(=O)OCCc1ccccc1` [Material 835]: the “Comment Code: Log” value (code letters K, L) is recorded as “K (Log of liquid dish neat product liquid-air partition coefficient greater than or equal to −7)”.
In the case of `CC(=CCCC1(C)C2CC3C(C2)C31C)CO` (stereo not shown) [Material 694], the “Log … (Comment Code K/L)” value is given as “K (Log of liquid dish neat product liquid-air partition coefficient greater than or equal to −7)”. In addition, under “code letters K, L”, the “Comment Code: Log” value is listed as “K (Log of liquid dish neat product liquid-air partition coefficient greater than or equal to −7)”.
As for `c1ccc(COCc2ccccc2)cc1` [Material 454], the “Comment Code: Log” value (code letters K, L) is reported as “K (Log of liquid dish neat product liquid-air partition coefficient greater than or equal to −7)”.
On the same count and under the same terms, the result for `CCC(=O)N(CC)c1cccc(C)c1` [Material 755] reads “K (Log of liquid dish neat product liquid-air partition coefficient greater than or equal to −7)”.
Take `CC(=O)OC1(C)CCC(=C(C)C)CC1` (stereo not shown) [Material 317]: the “Log … (Comment Code K/L)” value under setting [1] is recorded as “K (Log of liquid dish neat product liquid-air partition coefficient greater than or equal to −7)”.
For `C=Cc1ccc(O)cc1` [Material 789], under “code letters K, L”, the “Comment Code: Log” value is “K (Log of liquid dish neat product liquid-air partition coefficient greater than or equal to −7)”.
Consider `CC1C(C)(C)C2CCC3CC(C)(C)OC3C2C1(C)C` (stereo not shown) [Material 679], for which the “Log … (Comment Code K/L)” value is on record as “K (Log of liquid dish neat product liquid-air partition coefficient greater than or equal to −7)”. Also, the “Comment Code: Log” value (code letters K, L) is recorded as “K (Log of liquid dish neat product liquid-air partition coefficient greater than or equal to −7)”.
Consider `CC1=CCCC2(C)CCC(C(C)(C)O)CC12` (stereo not shown) [Material 775], for which the “Log … (Comment Code K/L)” value is listed as “K (Log of liquid dish neat product liquid-air partition coefficient greater than or equal to −7)”. For the same compound, the “Comment Code: Log” value (code letters K, L) is recorded as “K (Log of liquid dish neat product liquid-air partition coefficient greater than or equal to −7)”.
On to `CCCc1ccc(O)c(OC)c1` [Material 440], for which, for the setting “code letters K, L”, the “Comment Code: Log” value is given as “K (Log of liquid dish neat product liquid-air partition coefficient greater than or equal to −7)”.
For the compound `CC(C)(O)CCc1ccccc1` [Material 639], the “Log … (Comment Code K/L)” value is on record as “K (Log of liquid dish neat product liquid-air partition coefficient greater than or equal to −7)”.
For `CNC(=O)C(C)(C(C)C)C(C)C` [Material 846], for the setting “code letters K, L”, the “Comment Code: Log” value is on record as “K (Log of liquid dish neat product liquid-air partition coefficient greater than or equal to −7)”.
On the same count and under the same terms, the result for `COc1ccc(C=O)cc1OC` [Material 1118] reads “K (Log of liquid dish neat product liquid-air partition coefficient greater than or equal to −7)”.
`CC(=O)[C@@]1(C)CC2=C(CCCC2(C)C)C[C@@H]1C` [Material 215]: under setting [1], the “Log … (Comment Code K/L)” value was “K (Log of liquid dish neat product liquid-air partition coefficient greater than or equal to −7)”. The “Comment Code: Log” value (code letters K, L) was “K (Log of liquid dish neat product liquid-air partition coefficient greater than or equal to −7)”.
For `CC(=O)/C=C/C1C(C)CCC(C)C1(C)C` (stereo not shown) [Material 71], the “Log … (Comment Code K/L)” value under setting [1] is given as “K (Log of liquid dish neat product liquid-air partition coefficient greater than or equal to −7)”.
Regarding `CC(=CCC1CC=C(C)C1(C)C)CO` (stereo not shown) [Material 908], the “Log … (Comment Code K/L)” value is listed as “K (Log of liquid dish neat product liquid-air partition coefficient greater than or equal to −7)”.
Regarding `CC(C)=CCC/C(C)=C/COC=O` [Material 306], the “Comment Code: Log” value (code letters K, L) is on record as “K (Log of liquid dish neat product liquid-air partition coefficient greater than or equal to −7)”.
Turning to `CC1(C)C2CCC3(C2)C1C1(CCC3(C)C)OCCO1` (stereo not shown) [Material 1144], the “Comment Code: Log” value is recorded as “K (Log of liquid dish neat product liquid-air partition coefficient greater than or equal to −7)” (code letters K, L) and “K (Log of liquid dish neat product liquid-air partition coefficient greater than or equal to −7)” (codes K/L of the Comment Code, Table 1).
In the case of `O=C1CCC=CCCCCCCCCCC1` [Material 372], the “Log … (Comment Code K/L)” value under setting [1] is recorded as “K (Log of liquid dish neat product liquid-air partition coefficient greater than or equal to −7)”.
`CCC=C1OC(=O)c2ccccc21` [Material 805]: the “Log … (Comment Code K/L)” value was “K (Log of liquid dish neat product liquid-air partition coefficient greater than or equal to −7)”.
Regarding `C=CC(=C)CCCC(C)(C)O` [Material 34], the “Log … (Comment Code K/L)” value under setting [1] was “K (Log of liquid dish neat product liquid-air partition coefficient greater than or equal to −7)”.
On the same count and under the same terms, the result for `CC1(C)CCCC2=C1CC(C=O)CC2` (stereo not shown) [Material 486] reads “K (Log of liquid dish neat product liquid-air partition coefficient greater than or equal to −7)”.
Turning to `CC(=O)O[C@]1(C)CC[C@@]23C[C@@H]1C(C)(C)[C@@H]2CC[C@H]3C` [Material 567], the “Log … (Comment Code K/L)” value was “K (Log of liquid dish neat product liquid-air partition coefficient greater than or equal to −7)”. Also, for the setting “code letters K, L”, the “Comment Code: Log” value is recorded as “K (Log of liquid dish neat product liquid-air partition coefficient greater than or equal to −7)”.
Take `CC(=O)c1cc2c(cc1C)C(C)(C)C(C)C2(C)C` (stereo not shown) [Material 927]: the “Log … (Comment Code K/L)” value is given as “K (Log of liquid dish neat product liquid-air partition coefficient greater than or equal to −7)”. The “Comment Code: Log” value (code letters K, L) is recorded as “K (Log of liquid dish neat product liquid-air partition coefficient greater than or equal to −7)”.
For the compound `C=C(C)C1CCC(C)(OC(C)=O)CC1` (stereo not shown) [Material 611], the “Log … (Comment Code K/L)” value was “K (Log of liquid dish neat product liquid-air partition coefficient greater than or equal to −7)”.
On to `CC1(C)CCc2ccc(CCC=O)cc21` [Material 260], for which the “Log … (Comment Code K/L)” value under setting [1] is “K (Log of liquid dish neat product liquid-air partition coefficient greater than or equal to −7)”. In addition, under “code letters K, L”, the “Comment Code: Log” value is recorded as “K (Log of liquid dish neat product liquid-air partition coefficient greater than or equal to −7)”.
Consider `C/C=C1/CC2CC1C1CCC(=O)OC21` (stereo not shown) [Material 353], for which, under setting [1], the “Log … (Comment Code K/L)” value is “K (Log of liquid dish neat product liquid-air partition coefficient greater than or equal to −7)”. In addition, the “Comment Code: Log” value (code letters K, L) is recorded as “K (Log of liquid dish neat product liquid-air partition coefficient greater than or equal to −7)”.
As to `CC(C)C1OC2(CCCC2)OCC1(C)C` (stereo not shown) [Material 25], the “Log … (Comment Code K/L)” value under setting [1] is on record as “K (Log of liquid dish neat product liquid-air partition coefficient greater than or equal to −7)”.
